Laboratory results as given in patent publication US10426775B2, “Methods for treating Friedreich's ataxia with etravirine” (Fratagene Therapeutics srl, priority 2017, dated 2019).

Legend:
frataxin = assay: Western blot of frataxin in lymphoblastoid cell lines derived from FRDA patients; type: cell-based, human
Protocol: (§1) Lymphoblastoid cell lines from one healthy subject [GM16215] and 7 FRDA patients [GM16228, GM16203, GM16214, GM16223, GM16210, GM16205, GM16216], and primary fibroblasts from 2 FRDA patients [GM02816 and GM04078], were obtained from NIGMS Human Genetic Cell Repository, Coriell Institute for Medical Research (Camden, N.J., USA). Lymphoblasts and fibroblasts were grown at 37° C. and 5% CO2 and were respectively cultured in RPMI or DMEM, supplemented with 15% FBS, […] penicillin/streptomycin and 2 mM L-glutamine.
For the validation steps, etravirine (TMC125) was purchased from Selleckchem and was dissolved in DMSO at a stock concentration of 10 mM. HEK-293 Flp-In cells, stably overexpressing frataxin, were treated with the drug (or only DMSO) for 24 hours at final concentration of 10 μM. FRDA cells were treated with different concentration of etravirine. For all drug (and no drug) treatments, the final concentration of DMSO in the cell culture medium was 0.1%.
Total cell extracts were prepared in lysis buffer (50 mM Tris-HCl, pH 7.5, 150 mM NaCl, 1% Igepal CA-630, 5 mM EDTA, 5 mM EGTA) supplemented with complete protease inhibitor cocktail (Roche Diagnostics, Indianapolis, Ind., USA). Lysates were clarified by centrifugation and supernatants were mixed with 4× Laemmli sample buffer (50 mM Tris pH 6.8, 2% SDS, 10% gliycerol, 0.0025% bromophenol blue, 5% beta-mercaptoethanol), boiled for 5 min, resolved by precast 12% SDS-PAGE gels (Bio-Rad Laboratories, Hercules, Calif., USA) and transferred to […] nitrocellulose membrane (TRANS-BLOT® TURBO™ Transfer pack, Bio-Rad). Membranes were blocked with 5% non-fat dry milk, 0.1% Tween 20 in phosphate-buffered saline (PBS) and incubated with the indicated primary and secondary antibodies. The immunoreactive bands were detected by ECL (GE Healthcare, Chalfont St. Giles, UK) and imaged with a ChemiDoc XRS system (Bio-Rad). Densitometry analysis was performed using the ImageLab 4.1 Software (Bio-Rad). To analyse the western blot densitometry results, a Student's t test was applied. All values are expressed as means±1 S.E.M.
In order to evaluate whether the precursor that readily accumulates upon etravirine treatment can be converted into the mature functional form of frataxin, we tested the effect of different doses of etravirine, ranging from 100 nM to 10 μM, on a lymphoblastoid cell line, GM16203, derived from an FRDA patient. The cells were treated with the indicated doses of etravirine for 24 hours. Cell extracts were resolved on SDS-PAGE and analyzed by western blot analysis with anti-frataxin and anti-tubulin, as a loading control. We tested different doses, ranging from 100 nM to 3 μM, on the lymphoblastoid cell line GM16203.
A) FRDA lymphoblast cells, GM16203, were treated with the indicated doses of etravirine for 24 hours. Cell extracts were resolved on SDS-PAGE and analyzed by western blot analysis with anti-frataxin (lower panel) and anti-tubulin (upper panel), as a loading control. Int: intermediate frataxin; mat: mature frataxin; tub: tubulin. B) The graph represents the relative mature frataxin levels measured by densitometric analysis of independent blots and normalized with tubulin levels. Data represent the average of three independent experiments±S.E.M. p-values were calculated with Student's t-test (*p<0.05; **p<0.01)
We chose the minimal effective dose (300 nM) to evaluate the efficacy of etravirine over a broad range of cells derived from FRDA patients. In particular, we analysed 7 lymphoblastoid cell lines derived from FRDA patients and primary fibroblasts derived from two different FRDA patients. Each cell line was treated with 300 nM etravirine for 24 hours. Cell extracts were resolved on SDS-PAGE and analyzed by western blot analysis with anti-frataxin and anti-tubulin, as a loading control. Etravirine promotes increase in intermediate and mature frataxin levels in all the cell lines tested upon 24 hours of treatment (FIGS. 3A-3B). […]

mature frataxin = assay: Western blot of frataxin in primary fibroblasts derived from FRDA patients; type: cell-based, human; conditions: 300 nM etravirine, 24 hours
Protocol: as §1
For the validation steps, etravirine (TMC125) was purchased from Selleckchem and was dissolved in DMSO at a stock concentration of 10 mM. […]
Total cell extracts were prepared in lysis buffer (50 mM Tris-HCl, pH 7.5, 150 mM NaCl, 1% Igepal CA-630, 5 mM EDTA, 5 mM EGTA) supplemented with complete protease inhibitor cocktail (Roche Diagnostics, Indianapolis, Ind., USA). […] The immunoreactive bands were detected by ECL (GE Healthcare, Chalfont St. Giles, UK) and imaged with a ChemiDoc XRS system (Bio-Rad). […] All values are expressed as means±1 S.E.M.
We chose the minimal effective dose (300 nM) to evaluate the efficacy of etravirine over a broad range of cells derived from FRDA patients. In particular, we analysed 7 lymphoblastoid cell lines derived from FRDA patients and primary fibroblasts derived from two different FRDA patients. […]

Question: `Cc1cc(C#N)cc(C)c1Oc1nc(Nc2ccc(C#N)cc2)nc(N)c1Br` [etravirine] was tested. Which frataxin precursor accumulation (frataxin; FRDA lymphoblast cell line GM16203, 10 μM etravirine) did it give?
Answer: can also be detected

Question: And the “average fold increase in mature frataxin levels” value (“average fold increase” below) (frataxin; GM16203 lymphoblasts (830 GAA repeats), 300 nM etravirine, 24 hours)?
Answer: 1.41 fold

Question: And the “minimal effective dose (sufficient for a significant increase in intermediate and mature frataxin forms)” value (frataxin; GM16203 lymphoblasts, 24 hours, doses 100 nM to 10 μM)?
Answer: 300 nM

Question: What about the “frataxin form induced at the highest dose” value (frataxin; GM16203 lymphoblasts, 24 hours, etravirine at 10 (μM)) of the same compound?
Answer: mostly induces precursor accumulation

Question: What about the “average fold increase” value (frataxin; GM16205 lymphoblasts (530 GAA repeats), 300 nM etravirine, 24 hours) of the same compound?
Answer: 1.58 fold

Question: What about the “average fold increase” value (frataxin; GM16210 lymphoblasts (580 GAA repeats), 300 nM etravirine, 24 hours) of the same compound?
Answer: 1.22 fold

Question: What about the “average fold increase” value (frataxin; GM16214 lymphoblasts (700 GAA repeats), 300 nM etravirine, 24 hours) of the same compound?
Answer: 1.71 fold

Question: And the “frataxin accumulation in treated patient cells vs unaffected carrier cells” value (frataxin; GM16214 treated vs GM16215 untreated, 24 hours, 300 nM etravirine)?
Answer: comparable to frataxin levels in untreated cells derived from healthy control

Question: And the “average fold increase” value (frataxin; GM16216 lymphoblasts (500 GAA repeats), 300 nM etravirine, 24 hours)?
Answer: 1.21 fold

Question: What about the “average fold increase” value (frataxin; GM16223 lymphoblasts (630 GAA repeats), 300 nM etravirine, 24 hours) of the same compound?
Answer: 1.22 fold

Question: And the “average fold increase” value (frataxin; GM16228 lymphoblasts (840 GAA repeats), 300 nM etravirine, 24 hours)?
Answer: 1.62 fold

Question: What about the “overall increase in mature frataxin levels in cells derived from FRDA patients” value (frataxin; all FRDA lymphoblastoid lines and fibroblasts tested, 300 nM etravirine, 24 hours) of the same compound?
Answer: 50%

Question: And the “average fold increase” value (mature frataxin; GM03816 fibroblasts (380 GAA repeats))?
Answer: 1.65 fold

Question: And the “average fold increase” value (mature frataxin; GM04078 fibroblasts (541 GAA repeats))?
Answer: 1.71 fold
